What follows are compounds tested on A549 human lung epithelium cell line (assay: RANTES production in response to TNF-α from A549 cells). Settings: Homo sapiens, A549, A549 cells, 100 ng/ml TNF-α, read-out: Cellular activity grade (A549) (Cellular IC50).
Assay type: cell-based
Method in brief: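 Cells (4×10^4/well) in D-MEM/10% FCS preincubated 1 h at 37 °C with compound in 1% DMSO, then stimulated with 100 ng/ml TNF-α for 24 h. Supernatant RANTES quantified by Eu-labelled sandwich immunoassay (time-resolved fluorescence, ex 340/em 615 nm) against recombinant human RANTES standard.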
For N#Cc1c(C2CCNCC2)cc(-c2ccccc2O)nc1N [Example 1-13], the IC50 was < 1000 nM. N#Cc1c(C2CCCCN2)cc(-c2ccccc2O)nc1N (stereo not shown) [Example 1-14] was tested, and the IC50 was 1000 to 10000 nM. N#Cc1c(C2CNCCN2)cc(-c2ccccc2O)nc1N (stereo not shown) [Example 1-15] gave an IC50 of 1000 to 10000 nM. Work on Cc1cccc(-c2cc(C3CCCNC3)c(C#N)c(N)n2)c1O (stereo not shown) [Example 1-17] yielded an IC50 of 1000 to 10000 nM. Compound N#Cc1c(C2CCCNC2)cc(-c2ccc(O)cc2O)nc1N (stereo not shown) [Example 1-18] has an IC50 of 1000 to 10000 nM. With N#Cc1c(C2CCCNC2)cc(-c2cccc(F)c2O)nc1N (stereo not shown) [Example 1-19] the IC50 was < 1000 nM. For N#Cc1c(C2CCCNC2)cc(-c2cccc(Cl)c2O)nc1N (stereo not shown) [Example 1-20], the IC50 was < 1000 nM. Cc1cccc(O)c1-c1cc(C2CCCNC2)c(C#N)c(N)n1 (stereo not shown) [Example 1-21] was tested, and the IC50 was 1000 to 10000 nM. For N#Cc1c(C2CCC(N)CC2)cc(-c2ccccc2O)nc1N (stereo not shown) [Example 1-22], the IC50 was < 1000 nM. With N#Cc1c(C2CCCC(N)C2)cc(-c2ccccc2O)nc1N (stereo not shown) [Example 1-23] the IC50 was < 1000 nM. Work on N#Cc1c([C@@H](N)Cc2ccccc2)cc(-c2ccccc2O)nc1N [Example 1-25] yielded an IC50 of 1000 to 10000 nM. In the case of COc1ccc(C[C@H](N)c2cc(-c3ccccc3O)nc(N)c2C#N)cc1 [Example 1-26], the IC50 is reported as 1000 to 10000 nM. For CCCC[C@H](N)c1cc(-c2ccccc2O)nc(N)c1C#N [Example 1-28], the IC50 was > 10000 nM. In the case of N#Cc1c([C@@H](N)CCc2ccccc2)cc(-c2ccccc2O)nc1N [Example 1-29], the IC50 is reported as > 10000 nM. N#Cc1c([C@@H](N)Cc2ccc(F)cc2)cc(-c2ccccc2O)nc1N [Example 1-30] gave an IC50 of 1000 to 10000 nM. Work on N#Cc1c([C@@H]2CCCN2)cc(-c2ccccc2O)nc1N [Example 1-31] yielded an IC50 of 1000 to 10000 nM. Work on C[C@H](N)c1cc(-c2ccccc2O)nc(N)c1C#N [Example 1-32] yielded an IC50 of 1000 to 10000 nM. For CC(C)[C@H](N)c1cc(-c2ccccc2O)nc(N)c1C#N [Example 1-33], the IC50 was 1000 to 10000 nM. N#Cc1c([C@H](N)Cc2ccccc2)cc(-c2ccccc2O)nc1N [Example 1-34] was tested, and the IC50 was 1000 to 10000 nM. N#Cc1c(CC(N)c2ccccc2)cc(-c2ccccc2O)nc1N (stereo not shown) [Example 1-35] was tested, and the IC50 was 1000 to 10000 nM. With N#Cc1c(CCN)cc(-c2ccccc2O)nc1N [Example 1-37] the IC50 was < 1000 nM. For N#Cc1c(C2CCC(C(=O)O)CC2)cc(-c2ccccc2O)nc1N (stereo not shown) [Example 1-38], the IC50 was 1000 to 10000 nM. CCc1cc(-c2ccccc2O)nc(N)c1C#N [Example 1-39] was tested, and the IC50 was > 10000 nM. With N#Cc1c([C@H](Cc2ccccc2)NC(=O)CCN2CCCCC2)cc(-c2ccccc2O)nc1N [Example 1-40] the IC50 was 1000 to 10000 nM. With N#Cc1c(C2CCCN(C(=O)CCN3CCCCC3)C2)cc(-c2ccccc2O)nc1N (stereo not shown) [Example 1-41] the IC50 was 1000 to 10000 nM. CS(=O)(=O)N1CCCC(c2cc(-c3ccccc3O)nc(N)c2C#N)C1 (stereo not shown) [Example 1-42] was tested, and the IC50 was 1000 to 10000 nM. CCCN(CCC)C1CCCC(c2cc(-c3ccccc3O)nc(N)c2C#N)C1 (stereo not shown) [Example 1-43] was tested, and the IC50 was < 1000 nM. For N#Cc1c(CCO)cc(-c2ccccc2O)nc1N [Example 1-44], the IC50 was 1000 to 10000 nM. Cc1cccc(COc2cccc(O)c2-c2cc(C3CCCNC3)c(C#N)c(N)n2)c1 (stereo not shown) [Example 2-07] showed an IC50 of 1000 to 10000 nM. Cc1ccc(COc2cccc(O)c2-c2cc(C3CCCNC3)c(C#N)c(N)n2)cc1 (stereo not shown) [Example 2-08] was tested, and the IC50 was < 1000 nM. N#Cc1c(C2CCCNC2)cc(-c2c(O)cccc2OCc2cccc(C(F)(F)F)c2)nc1N (stereo not shown) [Example 2-09] showed an IC50 of 1000 to 10000 nM. In the case of N#Cc1c(C2CCCNC2)cc(-c2c(O)cccc2OCc2ccc(C(F)(F)F)cc2)nc1N (stereo not shown) [Example 2-10], the IC50 is reported as 1000 to 10000 nM. With N#Cc1c(C2CCCNC2)cc(-c2c(O)cccc2OCc2cccc(Br)c2)nc1N (stereo not shown) [Example 2-11] the IC50 was 1000 to 10000 nM. N#Cc1c(C2CCCNC2)cc(-c2c(O)cccc2OCc2ccccc2[N+](=O)[O-])nc1N (stereo not shown) [Example 2-12] showed an IC50 of 1000 to 10000 nM. For N#Cc1c(C2CCCNC2)cc(-c2c(O)cccc2OCc2cccc([N+](=O)[O-])c2)nc1N (stereo not shown) [Example 2-13], the IC50 was 1000 to 10000 nM. N#Cc1c(C2CCCNC2)cc(-c2c(O)cccc2OCc2ccc([N+](=O)[O-])cc2)nc1N (stereo not shown) [Example 2-14] was tested, and the IC50 was < 1000 nM.

Same assay, conditions: Homo sapiens, A549 cells, 100 ng/ml TNF-α, read-out: Cellular activity grade (A549) (Cellular IC50)
With CC(N)Cc1cc(-c2ccccc2O)nc(N)c1C#N (stereo not shown) [Example 1-36] the IC50 was 1000 to 10000 nM.

Source: patent publication US6984649B1, “Pyridine derivatives” (Bayer Aktiengesellschaft, priority 2000, dated 2006)
